Reference: PMC7565067, “Identification and Target-Modification of SL-BBI: A Novel Bowman–Birk Type Trypsin Inhibitor from Sylvirana latouchii” (Biomolecules, 2020)
Where a SMILES comes first, the peptide text is derived from it. Bridges are numbered along the chain shown (N, C = ends).

Experiments:
[1] = system: methicillin-resistant Staphylococcus aureus (MRSA) (NCTC 12493); assay type: cell-based
Experimental: (§1) Antimicrobial activity of the synthetic peptides was assessed by determination of MIC/MBC on Escherichia coli (ATCC 11775), Staphylococcus aureus (ATCC 12600), Candida albicans (NCYC 1467) and methicillin-resistant Staphylococcus aureus (MRSA) (NCTC 12493) according to the previous report. Briefly, the test microorganism was inoculated in Mueller Hinton Broth (MHB) medium and incubated overnight at 37 °C. Then the subculture was performed until the optical density (OD) reached the logarithmic growth phase and diluted to 1 × 10^6 colony forming units (CFU)/mL for bacteria and 1 × 10^5 CFU/mL for fungus obtained. The synthetic peptides with the concentration from 1 to 512 µM were double diluted by PBS. Five replications of sterile control, vehicle control and growth control were set as 100 µL MHB/well, 100 µL 1% PBS with subculture solution/well and 100 µl subculture solution/well, respectively. The 96-well plate was incubated at 37 °C overnight. The absorbance of each well at 550 nm was measured by Synergy HT plate reader (Biotech, Minneapolis, MN, USA). The minimum bactericidal concentration was detected by sub-culturing treated samples onto Mueller-Hinton agar (MHA) plate for another eighteen hours at 37 °C.

[2] = system: Escherichia coli (ATCC 11775); assay type: cell-based
Experimental: as §1

[3] = system: Staphylococcus aureus (ATCC 12600); assay type: cell-based
Experimental: as §1

[4] = system: Candida albicans (NCYC 1467); assay type: cell-based
Experimental: as §1

[5] = system: H157 cells; assay type: cell-based, human; details: 24 h; SD
Experimental: (§2) MTT (3-(4, 5-dimethylthiazol-2-yl)-2, 5-diphenyltetrazolium bromide) cell viability assay was performed to evaluate the cell proliferation inhibitory rate of synthetic peptides in a series of human cell lines: PC-3 (ATCC® CRL-1435™), H157 (RRID: CVCL_0463), H460 (ATCC® HTB-177™), H838 (ATCC® CRL-5844™), H23 (ATCC® CRL-5800™), MCF-7 (ATCC® HTB-22™), HCT116 (ATCC® CCL-247™), U251MG (ECACC-09063001) and HMEC-1 (ATCC® CRL-3243™) which was detailed in the previous report.

[6] = system: H460 cells; assay type: cell-based, human; details: 24 h; SD
Experimental: as §2

[7] = system: H838 cells; assay type: cell-based, human; details: 24 h; SD
Experimental: as §2

[8] = system: PC-3 cells; assay type: cell-based, human; details: 24 h; SD
Experimental: as §2

[9] = system: MCF-7 cells; assay type: cell-based, human; details: 24 h; SD
Experimental: as §2

[10] = system: HMEC-1 cells; assay type: cell-based, human; details: 24 h; SD
Experimental: as §2

[11] = system: H23 cells; assay type: cell-based, human; details: 24 h; SD
Experimental: as §2

[12] = target: chymotrypsin (Bos taurus, UniProt P00766); assay: biochemical
Experimental: Ten microliters of trypsin/chymotrypsin (Sigma Aldrich, Dorset, UK) working solution (0.1 µM in 1 mM HCl) was added into the wells of a black micro-titre plate with corresponding substrate and peptide replicates (0.1–100 µM) in 10 mM phosphate buffer (final volume 210 μL). Additionally, Phe-Pro-Arg- NHMec (Bachem, Cambridge, UK) and Succinyl-Ala-Ala-Pro-Phe-NHMec (Bachem, Cambridge, UK) were performed as substrates for trypsin and chymotrypsin, respectively. The fluorescence intensity of NHMec was monitored at 37 °C continuously for 30 min by a FLUOstar OPTIMA multi-well plate reader (BMG Labtech, Ortenberg, Germany) at wavelengths of 460 nm for emission and 395 nm for excitation.

| Structure (SMILES) | MBC, MRSA [1] [µM] | MIC, MRSA [1] [µM] | MBC, E. coli [2] | MIC, E. coli [2] [µM] | MBC, S. aureus [3] | MIC, S. aureus [3] [µM] | MBC, C. albicans [4] | MIC, C. albicans [4] [µM] | IC50 [5] [µM] | IC50 [6] [µM] | IC50 [7] [µM] | IC50 [8] [µM] | IC50 [9] [µM] | IC50 [10] [µM] | IC50 [11] [µM] | Ki [12] [µM] |
| --- | --- | --- | --- | --- | --- | --- | --- | --- | --- | --- | --- | --- | --- | --- | --- | --- |
| CC[C@H](C)[C@@H]1NC(=O)[C@H](CO)NC(=O)[C@H](Cc2ccccc2)NC(=O)[C@H]([C@@H](C)O)NC(=O)[C@H](Cc2c[nH]c3ccccc23)NC(=O)[C@@H](NC(=O)CNC(=O)[C@H](CCCNC(=N)N)NC(=O)[C@H](CC(C)C)NC(=O)[C@H](C)NC(=O)[C@@H](N)CO)CSSC[C@@H](C(=O)N[C@@H](CC(C)C)C(N)=O)NC(=O)[C@@H]2CCCN2C(=O)[C@H](CCCCN)NC(=O)[C@@H]2CCCN2C(=O)[C@@H]2CCCN2C1=O [F-SL] (H-SALRGCWTFSIPPKPCL-NH2; disulfide 6-16) | >512 | >512 | >512 µM | >512 | >512 µM | >512 | >512 µM | >512 | 101 ± 1.74 | 66 ± 2.64 | 59.7 ± 2.72 | 159 ± 6.44 | 202 ± 10.6 | 574 ± 9.41 | 79.1 ± 6.41 | 0.309 |
| CC[C@H](C)[C@@H]1NC(=O)[C@H](CO)NC(=O)[C@H](CCCCN)NC(=O)[C@H]([C@@H](C)O)NC(=O)[C@H](Cc2c[nH]c3ccccc23)NC(=O)[C@@H](NC(=O)CNC(=O)[C@H](CCCNC(=N)N)NC(=O)[C@H](CC(C)C)NC(=O)[C@H](C)NC(=O)[C@H](C)N)CSSC[C@@H](C(=O)N[C@@H](CCCCN)C(N)=O)NC(=O)[C@@H]2CCCN2C(=O)[C@H](CCCCN)NC(=O)[C@@H]2CCCN2C(=O)[C@@H]2CCCN2C1=O [K-SL] (H-AALRGCWTKSIPPKPCK-NH2; disulfide 6-16) | >512 | >512 | 128/128 μM | – | 64/64 μM | – | 64/64 μM | – | – | – | – | – | – | – | – | – |
| CC(C)C[C@H](NC(=O)[C@@H]1CSSC[C@H](NC(=O)CNC(=O)[C@H](CCCNC(=N)N)NC(=O)[C@H](CC(C)C)NC(=O)[C@H](C)NC(=O)[C@@H](N)CO)C(=O)N[C@@H](Cc2c[nH]c3ccccc23)C(=O)N[C@@H]([C@@H](C)O)C(=O)N[C@@H](CCCCN)C(=O)N[C@@H](CO)C(=O)N[C@@H](Cc2ccc(O)cc2)C(=O)N2CCC[C@H]2C(=O)N2CCC[C@H]2C(=O)N[C@@H](CCCCN)C(=O)N2CCC[C@H]2C(=O)N1)C(N)=O [SL-BBI] (H-SALRGCWTKSYPPKPCL-NH2; disulfide 6-16) | >512 | >512 | 128/128 μM | – | 256 µM | 256 | 256 µM | 256 | – | – | – | – | – | – | – | – |
